From ChEMBL document CHEMBL5214976, “Design, synthesis and anti-tumor activity studies of novel pyrido[3, 4-d]pyrimidine derivatives” (Bioorg Med Chem Lett, 2022) come the findings set out here.

In general, IC50 refers to the point on the concentration scale where inhibition reaches its midpoint.

The source made the active and inactive calls. The rule behind the calls is not given here. Some results are limits rather than exact numbers.

Assay [1] has as its system PC-3. The assay can be described thus: Antitumor activity against human PC-3 cells assessed as inhibition of cell proliferation incubated for 72 hrs by MTT assay. It counts as functional, cell-based. The conditions noted are these: PC-3, 72 h. (In general: Tetrazolium dyes change colour on reduction, which living cells bring about.)
The subject of assay [2] is MGC-803. The assay can be described thus: Antitumor activity human MGC-803 cells assessed as inhibition of cell proliferation incubated for 72 hrs by MTT assay. The conditions noted are these: MGC-803, 72 h. In kind it is functional, cell-based.
Assay [3] relates to HepG2. The assay can be described thus: Antitumor activity human HepG2 cells assessed as inhibition of cell proliferation incubated for 72 hrs by MTT assay. It counts as functional, cell-based. The conditions noted are these: HepG2, 72 h.
For assay [4], the system named is HepG2. The assay can be described thus: Potency index, ratio of 5-fluorouracil IC50 to test compound IC50 for antiproliferative activity against human HepG2 cells assessed as inhibition of cell proliferation incubated for 72 hrs by MTT assay. It counts as functional.
The subject of assay [5] is MGC-803. The assay can be described thus: Potency index, ratio of 5-fluorouracil IC50 to test compound IC50 for antiproliferative activity against human MGC-803 cells assessed as inhibition of cell proliferation incubated for 72 hrs by MTT assay. In kind it is functional.
In assay [6] the test system is MGC-803. The assay can be described thus: Antiproliferative activity against human MGC-803 cells assessed as inhibition of cell proliferation incubated for 48 hrs by MTT assay. The conditions noted are these: MGC-803, 48 h. In kind it is functional, cell-based.
The test system of assay [7] is MGC-803. Kind of assay: Induction of apoptosis in human MGC-803 cells assessed as early apoptotic cells at 0.75 uM by Annexin V-FITC/PI staining based flow cytometric analysis (reference value: 1.8 %). In kind it is functional. A general note: In flow cytometry, cells or beads pass a laser one at a time.
Assay [8] deals with MGC-803. The assay can be described thus: Induction of apoptosis in human MGC-803 cells assessed as early apoptotic cells at 0.5 uM by Annexin V-FITC/PI staining based flow cytometric analysis (reference value: 1.8 %). In kind it is functional.
Assay [9] deals with MGC-803. The assay can be described thus: Induction of apoptosis in human MGC-803 cells assessed as late apoptotic cells at 0.75 uM by Annexin V-FITC/PI staining based flow cytometric analysis (reference value: 2.8 %). In kind it is functional.
Assay [10] concerns MGC-803. Kind of assay: Induction of apoptosis in human MGC-803 cells assessed as total apoptotic cells at 0.75 uM by Annexin V-FITC/PI staining based flow cytometric analysis (reference value: 4.6%). It counts as functional.
Assay [11] has as its system MGC-803. Kind of assay: Induction of apoptosis in human MGC-803 cells assessed as necrotic cells at 0.25 uM by Annexin V-FITC/PI staining based flow cytometric analysis (reference value: 0.4 %). It counts as functional.
For assay [12], the system named is MGC-803. Kind of assay: Induction of apoptosis in human MGC-803 cells assessed as increase in Bid protein expression by Western blot analysis. It counts as functional, cell-based. As to conditions: dose 0.25-0.75 µM, DDE = dose-dependent effect.
The subject of assay [13] is MGC-803. The assay can be described thus: Induction of apoptosis in human MGC-803 cells assessed as viable cells at 0.5 uM by Annexin V-FITC/PI staining based flow cytometric analysis (reference value: 95.0 %). It counts as functional. As to conditions: read-out: Activity.
Assay [14] relates to MGC-803. Kind of assay: Induction of apoptosis in human MGC-803 cells assessed as necrotic cells at 0.5 uM by Annexin V-FITC/PI staining based flow cytometric analysis (reference value: 0.4 %). It counts as functional.
Assay [15] relates to MGC-803. The assay can be described thus: Induction of apoptosis in human MGC-803 cells assessed as necrotic cells at 0.75 uM by Annexin V-FITC/PI staining based flow cytometric analysis (reference value: 0.4 %). It counts as functional.
Assay [16] relates to MGC-803. The assay can be described thus: Induction of apoptosis in human MGC-803 cells assessed as early apoptotic cells at 0.25 uM by Annexin V-FITC/PI staining based flow cytometric analysis (reference value: 1.8 %). It counts as functional.
The subject of assay [17] is MGC-803. Kind of assay: Induction of apoptosis in human MGC-803 cells assessed as viable cells at 0.75 uM by Annexin V-FITC/PI staining based flow cytometric analysis (reference value: 95.0 %). In kind it is functional. The conditions noted are these: read-out: Activity.
Assay [18] relates to MGC-803. Kind of assay: Induction of apoptosis in human MGC-803 cells assessed as increase in PARP protein expression by Western blot analysis. It counts as functional, cell-based. The conditions noted are these: dose 0.25-0.75 µM, DDE = dose-dependent effect.
The test system of assay [19] is MGC-803. The assay can be described thus: Induction of apoptosis in human MGC-803 cells assessed as total apoptotic cells at 0.5 uM by Annexin V-FITC/PI staining based flow cytometric analysis (reference value: 4.6%). It counts as functional.
In assay [20] the test system is MGC-803. Kind of assay: Induction of cell cycle arrest in human MGC-803 cells assessed as accumulation of cells at G1/S phase by measuring decrease in CycD1 protein expression at 0.25 to 0.75 uM by Western blot analysis. It counts as functional, cell-based. The conditions noted are these: dose 0.25-0.75 µM. In general terms: Immunoblotting shows a protein as a band on a membrane.

The subject of assay [21] is MGC-803. Kind of assay: Induction of apoptosis in human MGC-803 cells assessed as late apoptotic cells at 0.5 uM by Annexin V-FITC/PI staining based flow cytometric analysis (reference value: 2.8 %). It counts as functional.
Assay [22] relates to MGC-803. The assay can be described thus: Induction of apoptosis in human MGC-803 cells assessed as viable cells at 0.25 uM by Annexin V-FITC/PI staining based flow cytometric analysis (reference value: 95.0 %). It counts as functional. The conditions noted are these: read-out: Activity.
The test system of assay [23] is MGC-803. The assay can be described thus: Induction of apoptosis in human MGC-803 cells assessed as total apoptotic cells at 0.25 uM by Annexin V-FITC/PI staining based flow cytometric analysis (reference value: 4.6%). In kind it is functional.
Assay [24] relates to MGC-803. Kind of assay: Induction of apoptosis in human MGC-803 cells assessed as late apoptotic cells at 0.25 uM by Annexin V-FITC/PI staining based flow cytometric analysis (reference value: 2.8 %). It counts as functional.

Take `C#CCSc1nc(NCCC(C)C)c2ccncc2n1`: the IC50 in assay [1], in assay [2] and in assay [3] was > 80 µM in each case.
As to `C#CCSc1nc(NCCC#N)c2ccncc2n1`, the IC50 in assay [1], in assay [2] and in assay [3] was > 80 µM each time.
On to `C#CCSc1nc(Nc2ccc([N+](=O)[O-])cc2)c2ccncc2n1`, for which the IC50 in assay [1], in [2] and in assay [3] was > 80 µM throughout.
Turning to `C#CCSc1nc(N2CCOCC2)c2ccncc2n1`, the IC50 in assay [1], in assay [2] and in [3] was > 80 µM in each case.
Turning to `C#CCSc1nc(Nc2cc(OC)c(OC)c(OC)c2)c2ccncc2n1`, the IC50 in assay [1] was 30.7 µM; in assay [2] it was 5.68 µM; in assay [3], 14.2 µM.
Consider `C#CCSc1nc(Nc2ccccc2Cl)c2ccncc2n1`, for which the IC50 in assay [1] is > 80 µM; in [2] it was 27.6 µM; in [3], 17.2 µM.
Take `C#CCSc1nc(Nc2cccc(Cl)c2)c2ccncc2n1`: the values for the IC50 in assay [1], in [2] and in assay [3] were 56.5 µM, 2.19 µM and 1.09 µM, respectively.
The matching figures for `C#CCSc1nc(Nc2ccc(O)cc2)c2ccncc2n1`: > 80 µM, > 80 µM and > 80 µM.
Take `C#CCSc1nc(N2CCN(CC)CC2)c2ccncc2n1`: the IC50 in assay [1] is > 80 µM; in [2], 70.6 µM; in assay [3] it was > 80 µM.
For the compound `C#CCSc1nc(Nc2ccc(Br)cc2)c2ccncc2n1`, the IC50 amounted to 26 µM in assay [1], 26 µM in assay [2] and 56.2 µM in assay [3].
On to `C#CCSc1nc(N2CCN(Cc3ccccc3)CC2)c2ccncc2n1`, for which the IC50 in assay [1], in [2] and in [3] was > 80 µM in each case.
On to `C#CCSc1nc(N2CCSCC2)c2ccncc2n1`, for which the IC50 in assay [1], in assay [2] and in [3] was > 80 µM each time.
`C#CCSc1nc(Nc2ccc(C)cc2)c2ccncc2n1`: the values for the IC50 in assay [1], in [2] and in [3] were 15.7 µM, 8.09 µM and 6.17 µM, respectively.
Take `C#CCSc1nc(Nc2ccc(Cl)cc2Cl)c2ccncc2n1`: the IC50 amounted to 30.4 µM in assay [1], 25.5 µM in assay [2] and 11 µM in assay [3].
Consider `C#CCSc1nc(Nc2ccc(OC)cc2)c2ccncc2n1`, for which the IC50 in assay [1] was 15.1 µM; in assay [2], > 80 µM; in [3], > 80 µM.
With `C#CCSc1nc(Nc2ccccc2O)c2ccncc2n1`, the IC50 in [1] is 18.7 µM; in assay [2], 21 µM; in assay [3] it was > 80 µM.
For `COc1cccc(Nc2nc(SCC3CC3)nc3cnccc23)c1`, the IC50 in assay [1] worked out at 14.8 µM; in assay [2], 1.34 µM; in [3], 24.9 µM.
In the case of `C#CCSc1nc(Nc2cccc(O)c2)c2ccncc2n1`, the values for the IC50 in assay [1], in [2] and in assay [3] were > 80 µM, 15.7 µM and 29.5 µM, respectively.
As for `COc1cccc(Nc2nc(SCC3CCCCC3)nc3cnccc23)c1`, the IC50 in [1] amounted to 27.5 µM; in assay [2], 23.7 µM; in assay [3], 32.8 µM.
For `C#CCSc1nc(Nc2ccc(Cl)cc2)c2ccncc2n1` the same measures were 19 µM, 16.4 µM and 36.7 µM.
Take `O=c1[nH]cc(F)c(=O)[nH]1` [FLUOROURACIL]: the IC50 in assay [1] amounted to 15.1 µM; in assay [2], 7.21 µM; in assay [3], 29.8 µM.
Turning to `C#CCSc1nc(N2CCN(C(=O)OC(C)(C)C)CC2)c2ccncc2n1`, the IC50 in assay [1] was 47.5 µM; in assay [2] it was > 80 µM; in assay [3], 55.9 µM.
As for `C#CCSc1nc(Nc2ccc(F)cc2)c2ccncc2n1`, the IC50 in assay [1] stood at 17.3 µM; in [2] it was 15.8 µM; in [3] it was 10.8 µM.
As to `CCCSc1nc(Nc2cccc(OC)c2)c2ccncc2n1`, the IC50 in assay [1] was 15.3 µM; in [2], 1.95 µM; in assay [3], 17.3 µM.
With `C#CCSc1nc(Nc2ccccc2)c2ccncc2n1`, the figures for the IC50 in [1], in assay [2] and in [3] were > 80 µM, 16.2 µM and 29.4 µM, respectively.
Regarding `C#CCSc1nc(N2CCN(C)CC2)c2ccncc2n1`, the IC50 in [1], in assay [2] and in assay [3] was > 80 µM in each case.
With `C/C=C/Sc1nc(Nc2cccc(OC)c2)c2ccncc2n1`, the IC50 in [1] worked out at 6.79 µM; in [2], 1.03 µM; in assay [3] it was 18.1 µM.
In the case of `C#CCSc1nc(Nc2cccc(OC)c2)c2ccncc2n1`, the figures for the IC50 in assay [1], in assay [2] and in assay [3] were 17.1 µM, 2.07 µM and 0.92 µM, respectively. Moreover, the “Ratio IC50” value amounted to 30 in assay [4] and 3 in assay [5].
In the case of `C#CCSc1nc(Nc2ccccc2OC)c2ccncc2n1`, the IC50 was > 80 µM in assay [1], 3.44 µM in [2] and 4.53 µM in assay [3].
Turning to `Cc1cc(Cc2nc(C)c3ccccc3n2)n2ncnc2n1`, the IC50 in assay [6] stood at 8.28 µM.
As for `CCSc1nc(Nc2cccc(OC)c2)c2ccncc2n1`, the Activity is 38.9% in [7]; 16% in assay [8]; 36.8% in [9]; 75.7% in [10]; 0.2% in assay [11]; “Dde” in [12]. For the same compound, the Activity in assay [14] was 0.5%; in assay [15], 0.2%; in assay [16], 6.8%; in [18] it was “Dde”; in [19] it was 27.6%; in assay [21] it was 11.6%. The Activity in assay [23] amounted to 9.8%; in assay [24], 3%. Moreover, the IC50 in assay [1] is 7.15 µM; in assay [2] it was 0.59 µM; in [3] it was 10.7 µM. The viability at 0.5 µM in assay [13] worked out at 71.9%. Further, the viability at 0.75 µM in [17] turned out to be 24.1%. Besides, the result in [20] was Active. In addition, the viability at 0.25 µM in [22] amounted to 90%.
